Results from patent US11566007B2, “Ras inhibitors” (Revolution Medicines, Inc., priority 2019, dated 2023).
Where “and” joins values, the source holds several entries; their conditions need not be identical. Identical values can stand only once. Like-named read-outs stand apart in the source and are kept apart here.

Tests used:
[1] = biological target: KRAS G12S (Homo sapiens (Human), UniProt P01116+P62937, G12S); test: Ras-Raf (BRAF RBD) disruption / FRET / MOA assay, KRAS G12S; format: biochemical; settings: Ras-Raf disruption/FRET/MOA assay; class symbols; read-out: KRAS G12S FRET data IC50
How it was run: (§1)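 Compound-driven ternary complex of nucleotide-loaded Ras with cyclophilin A, disrupting BRAF RBD binding. 10-point 3-fold dilution from 30 μM final, 3 h at 25° C, then anti-His Eu-W1024 (10 nM) and anti-GST allophycocyanin (50 nM) for 1.5 h. IC50 from TR-FRET ratio decrease versus DMSO.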

[2] = biological target: K-Ras G12C (Homo sapiens (Human), UniProt P01116+P62937, G12C); test: Ras-Raf (BRAF RBD) disruption / FRET / MOA assay, KRAS G12C; format: biochemical; settings: KRAS G12C; Ras-Raf disruption/FRET/MOA assay; read-out: IC50* KRAS G12C FRET data
Protocol: (§2) The purpose of this biochemical assay is to measure the ability of test compounds to facilitate ternary complex formation between a nucleotide-loaded Ras isoform and cyclophilin A; the resulting ternary complex disrupts binding to a BRAF^RBD construct, inhibiting Ras signaling through a RAF effector.
(§3) Compound is present in plate wells as a 10-point 3-fold dilution series starting at a final concentration of 30 μM. After incubation at 25° C. for 3 hours, a mixture of Anti-His Eu-W1024 and anti-GST allophycocyanin is then added to assay sample wells at final concentrations of 10 nM and 50 nM, respectively, and the reaction incubated for an additional 1.5 hours. […] Compounds that facilitate disruption of a Ras:RAF complex are identified as those eliciting a decrease in the TR-FRET ratio relative to DMSO control wells.
(§4) This protocol may also be executed substituting other Ras proteins or nucleotides.
(§5) The purpose of this biochemical assay was to measure the ability of test compounds to facilitate ternary complex formation between a nucleotide-loaded K-Ras isoform and Cyclophilin A; the resulting ternary complex disrupts binding to a BRAF^RBD construct, inhibiting K-Ras signaling through a RAF effector. Data is reported as IC50 values.
as §3, with “Compound was” for “Compound is”, “allophycocyanin was” for “allophycocyanin is”, “a K-Ras:RAF” for “a Ras:RAF”, “complex were” for “complex are”

[3] = biological target: KRAS WT (Homo sapiens (Human), UniProt P01116+P62937); test: Ras-Raf (BRAF RBD) disruption / FRET / MOA assay, KRAS WT; format: biochemical; settings: read-out: IC50* KRAS WT FRET data
Protocol: as §2, §3, §4, §5
as §3, with “Compound was” for “Compound is”, “allophycocyanin was” for “allophycocyanin is”, “a K-Ras:RAF” for “a Ras:RAF”, “complex were” for “complex are”

[4] = biological target: KRAS G12D (Homo sapiens (Human), UniProt P01116+P62937, G12D); test: Ras-Raf (BRAF RBD) disruption / FRET / MOA assay, KRAS G12D; format: biochemical; settings: Ras-Raf disruption/FRET/MOA assay; class symbols; read-out: KRAS G12D FRET data IC50
How it was run: as §1

[5] = system: NCI-H358 cells (K-Ras G12C); test: Potency assay: pERK in NCI-H358 cells; format: cell-based, human; settings: H358 KRAS G12C, read-out: pERK EC50
How it was run: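 4 h cpd, 37 °C; 10-pt 3-fold series, 10 mM DMSO top stock, duplicates. Readout pERK: AlphaLISA SureFire Ultra or In-Cell Western (IR-800CW secondary, DRAQ5 DNA stain). IC50, 4-PL fit vs log conc.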

[6] = biological target: K-Ras G13C (Homo sapiens (Human), UniProt P01116+P62937, G13C); test: Ras-Raf (BRAF RBD) disruption / FRET / MOA assay, KRAS G13C; format: biochemical; settings: KRAS G13C; Ras-Raf disruption/FRET/MOA assay; read-out: IC50* KRAS G13C FRET data
Protocol: as §2, §3, §4, §5
as §3, with “Compound was” for “Compound is”, “allophycocyanin was” for “allophycocyanin is”, “a K-Ras:RAF” for “a Ras:RAF”, “complex were” for “complex are”

[7] = system: NCI-H358 (K-Ras G12C); test: CellTiter-Glo cell viability assay, NCI-H358; format: cell-based, human; settings: NCI-H358, 5-day treatment, class symbols, read-out: Additional H358 Cell Viability assay data (K-Ras G12C, IC50)
How it was run: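 Viability measured by CellTiter-Glo luminescence on day 5 following direct addition of compound to plated cells. Values expressed as percent of mean DMSO signal; curves fitted with a four-parameter logistic model.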

[8] = biological target: KRAS G12V (Homo sapiens (Human), UniProt P01116+P62937, G12V); test: Ras-Raf (BRAF RBD) disruption / FRET / MOA assay, KRAS G12V; format: biochemical; settings: read-out: IC50* KRAS G12V FRET data
Protocol: as §2, §3, §4, §5
as §3, with “Compound was” for “Compound is”, “allophycocyanin was” for “allophycocyanin is”, “a K-Ras:RAF” for “a Ras:RAF”, “complex were” for “complex are”

[9] = biological target: NRAS G12C (Homo sapiens (Human), UniProt P01111+P62937, G12C); test: Ras-Raf (BRAF RBD) disruption / FRET / MOA assay, NRAS G12C; format: biochemical; settings: read-out: IC50* NRAS G12C FRET data
Protocol: as §2, §3
This protocol may also be executed substituting other Ras proteins or nucleotides. […]

Sequence of K-Ras G12C (P01116-2 other isoform, or with tags, fused parts or gaps G12C): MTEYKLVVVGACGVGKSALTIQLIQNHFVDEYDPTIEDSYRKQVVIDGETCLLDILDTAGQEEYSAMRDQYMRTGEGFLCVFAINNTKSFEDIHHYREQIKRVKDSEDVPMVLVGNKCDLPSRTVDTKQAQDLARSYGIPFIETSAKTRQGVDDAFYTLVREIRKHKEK
Sequence of K-Ras G12C (P62937 whole entry, canonical isoform): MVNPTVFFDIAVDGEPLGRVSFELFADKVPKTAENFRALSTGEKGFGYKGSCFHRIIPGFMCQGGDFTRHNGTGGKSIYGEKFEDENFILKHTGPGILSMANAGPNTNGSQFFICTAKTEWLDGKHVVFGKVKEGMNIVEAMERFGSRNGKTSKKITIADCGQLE
Sequence of KRAS G12S (P01116-2 other isoform, or with tags, fused parts or gaps G12S): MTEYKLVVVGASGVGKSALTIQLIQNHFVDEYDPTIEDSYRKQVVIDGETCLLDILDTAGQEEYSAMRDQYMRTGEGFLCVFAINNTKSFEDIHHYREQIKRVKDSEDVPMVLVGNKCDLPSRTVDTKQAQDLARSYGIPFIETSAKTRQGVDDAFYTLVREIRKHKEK
Sequence of KRAS G12S (P62937 whole entry): as the sequence (P62937 whole entry, canonical isoform) above
Sequence of KRAS G12V (P01116-2 other isoform, or with tags, fused parts or gaps G12V): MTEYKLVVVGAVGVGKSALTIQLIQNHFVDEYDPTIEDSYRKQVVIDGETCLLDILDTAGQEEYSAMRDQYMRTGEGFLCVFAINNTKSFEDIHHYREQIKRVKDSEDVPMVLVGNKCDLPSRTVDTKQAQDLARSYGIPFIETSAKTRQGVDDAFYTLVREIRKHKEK
Sequence of KRAS G12V (P62937 whole entry): as the sequence (P62937 whole entry, canonical isoform) above
Sequence of K-Ras G13C (P01116-2 other isoform, or with tags, fused parts or gaps G13C): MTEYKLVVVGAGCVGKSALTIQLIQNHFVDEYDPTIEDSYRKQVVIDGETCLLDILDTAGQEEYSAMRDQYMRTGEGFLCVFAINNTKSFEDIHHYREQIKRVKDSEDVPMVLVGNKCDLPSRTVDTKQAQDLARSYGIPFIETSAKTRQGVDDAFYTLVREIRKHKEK
Sequence of K-Ras G13C (P62937 whole entry): as the sequence (P62937 whole entry, canonical isoform) above
Sequence of KRAS WT (P01116-2 other isoform, or with tags, fused parts or gaps): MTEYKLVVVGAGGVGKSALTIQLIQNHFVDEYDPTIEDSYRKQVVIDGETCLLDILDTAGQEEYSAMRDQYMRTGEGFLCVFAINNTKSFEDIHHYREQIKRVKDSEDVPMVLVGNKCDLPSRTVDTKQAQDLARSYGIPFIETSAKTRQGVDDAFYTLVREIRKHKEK
Sequence of KRAS WT (P62937 whole entry): as the sequence (P62937 whole entry, canonical isoform) above
Sequence of KRAS G12D (P01116-2 other isoform, or with tags, fused parts or gaps G12D): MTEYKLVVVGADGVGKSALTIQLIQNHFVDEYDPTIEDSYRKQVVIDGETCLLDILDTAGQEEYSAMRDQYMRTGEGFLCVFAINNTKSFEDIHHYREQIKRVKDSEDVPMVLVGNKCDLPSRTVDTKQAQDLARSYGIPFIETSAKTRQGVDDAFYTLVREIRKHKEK
Sequence of KRAS G12D (P62937 whole entry): as the sequence (P62937 whole entry, canonical isoform) above
Sequence of NRAS G12C (P01111 whole entry G12C): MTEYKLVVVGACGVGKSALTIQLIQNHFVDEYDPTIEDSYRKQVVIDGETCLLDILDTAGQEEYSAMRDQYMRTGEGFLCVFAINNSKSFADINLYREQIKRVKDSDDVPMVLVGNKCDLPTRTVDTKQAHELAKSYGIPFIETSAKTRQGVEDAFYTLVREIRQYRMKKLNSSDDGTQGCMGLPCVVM
Sequence of NRAS G12C (P62937 whole entry): as the sequence (P62937 whole entry, canonical isoform) above

Row | Structure (SMILES) | IC50 [1] | IC50 [2] | IC50 [3] | IC50 [4] | EC50 ([5]; Homo sapiens, NCI-H358) | IC50 [6] | IC50 ([7]; Homo sapiens, NCI-H358, 120 h) | IC50 [8] | IC50 [9] | EC50 [5] | IC50 [7]
1 | CCn1c(-c2ccccc2CCOC)c2c3cc(ccc31)-c1cc(O)cc(c1)C[C@H](NC(=O)[C@H](C(C)C)N(C)C(=O)c1ccc(NC(=O)/C=C/CN(C)C)nc1)C(=O)N1CCC[C@H](N1)C(=O)OCC(C)(C)C2 [Example A218] | > 10 µM | 0.1 to 1 µM and 1 to 10 µM | > 10 µM | 1 to 10 µM | < 5 µM | 0.01 to 0.1 µM and 0.1 to 1 µM | > 1 µM | 1 to 10 µM and > 10 µM | – | – | –
2 | C=CC(=O)N1CC[C@H](C(=O)N(C)[C@H](C(=O)N[C@H]2Cc3cc(O)cc(c3)-c3ccc4c(c3)c(c(-c3ccccc3CCOC)n4CC)CC(C)(C)COC(=O)[C@]3(C)CCCN(N3)C2=O)C(C)C)C1 [Example A219] | > 10 µM | 1 µM to 10 µM (2×) and > 10 µM (2×) | > 10 µM | > 10 µM | < 5 µM | > 10 µM | 0.1 to 1 µM | > 10 µM | – | – | –
3 | CCn1c(-c2ccccc2CCOC)c2c3cc(ccc31)-c1cc(O)cc(c1)C[C@H](NC(=O)[C@H](C(C)C)N(C)C(=O)c1ccc(N(C)C(=O)/C=C/CN(C)C)cc1)C(=O)N1CCC[C@H](N1)C(=O)OCC(C)(C)C2 [Example A220] | > 10 µM | 0.1 to 1 µM and 1 to 10 µM | > 10 µM | 1 to 10 µM and > 10 µM | < 5 µM | 0.1 to 1 µM | > 1 µM | > 10 µM | – | – | –
4 | CC#CC(=O)N1CC[C@H](C(=O)N(C)[C@H](C(=O)N[C@H]2Cc3cc(O)cc(c3)-c3ccc4c(c3)c(c(-c3ccccc3CCOC)n4CC)CC(C)(C)COC(=O)[C@@H]3CCCN(N3)C2=O)C(C)C)C1 [Example A221] | 1 to 10 µM and > 10 µM | 0.1 to 1 µM and > 10 µM | > 10 µM | > 10 µM | < 5 µM | > 10 µM and 1 to 10 µM | – | 1 to 10 µM and > 10 µM | – | – | –
5 | C=CC(=O)N1CCC2(CC1)CCN([C@H](C(=O)N[C@H]1Cc3cc(O)cc(c3)-c3ccc4c(c3)c(c(-c3ccccc3CCOC)n4CC)CC(C)(C)COC(=O)[C@@H]3CCCN(N3)C1=O)C(C)C)C2=O [Example A222] | > 10 µM | 0.1 to 1 µM and 1 to 10 µM | 1 to 10 µM and > 10 µM | > 10 µM | < 5 µM | 0.1 to 1 µM and > 10 µM | – | > 10 µM | – | – | –
6 | C=CC(=O)N1CC[C@H](C(=O)N(C)[C@H](C(=O)N[C@H]2Cc3cc(O)cc(c3)-c3ccc4c(c3)c(c(-c3ccc(OCC(=O)O)cc3)n4CC)CC(C)(C)COC(=O)[C@@H]3CCCN(N3)C2=O)C(C)C)C1 [Example A223] | 1 to 10 µM and > 10 µM | 0.1 to 1 µM and > 10 µM | > 10 µM | > 10 µM | – | > 10 µM | > 1 µM | 1 to 10 µM and > 10 µM | – | – | –
7 | CCn1c(-c2ccccc2CCOC)c2c3cc(ccc31)-c1cc(O)cc(c1)C[C@H](NC(=O)[C@H](C(C)C)N(C)C(=O)c1ccc(NC(=O)/C=C/CN(C)C)cn1)C(=O)N1CCC[C@H](N1)C(=O)OCC(C)(C)C2 [Example A224] | > 10 µM | 0.1 to 1 µM and 1 to 10 µM | > 10 µM | 1 to 10 µM | < 5 µM | 0.01 to 0.1 µM and 0.1 to 1 µM | > 1 µM | 1 to 10 µM and > 10 µM | – | – | –
8 | CCn1c(-c2cccnc2[C@H](C)OC)c2c3cc(ccc31)-c1cc(O)cc(c1)C[C@H](NC(=O)[C@H](C(C)C)N(C)C(=O)[C@H]1CCN(C(=O)C#CC3(N(C)C)COC3)C1)C(=O)N1CCC[C@H](N1)C(=O)OCC(C)(C)C2 [Example A337] | 0.1 to 1 µM | < 0.01 µM | – | 1 to 10 µM | – | – | – | – | < 0.01 µM | < 5 µM | < 0.01 µM
